Laboratory results taken from PubChem BioAssay (NCI).
Where “and” joins values, the source holds several entries; their conditions need not be identical. Equal values may be shown once.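 Growth conditions: 96-well plates. Treatment: test compound, 48 hours, 5 concentrations. Analysis: linear interpolation between bracketing concentrations; unreached endpoints set to highest concentration. GI50 is the concentration that inhibits growth by half. TGI marks complete inhibition of growth.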

Assays:
Assay in all cases: NCI anticancer screen, dose series, 48 h
[1] = tested on: OVCAR-8 ovarian
[2] = tested on: UACC-257 melanoma
[3] = tested on: EKVX NSCLC
[4] = tested on: OVCAR-5 ovarian
[5] = tested on: SF-295 CNS
[6] = tested on: SK-OV-3 ovarian
[7] = tested on: SK-MEL-2 melanoma
[8] = tested on: NCI-H522 lung
[9] = tested on: KM12 colon
[10] = tested on: BT-549 breast

SMILES	TGI [1] [µM]	TGI [2]	TGI [3]	TGI [4] [µM]	TGI [5] [µM]	TGI [6] [µM]	TGI [7] [µM]	GI50 [8]	TGI [8]	TGI [9]	TGI [10] [µM]	GI50 [1] [µM]	GI50 [2] [µM]	GI50 [3] [µM]	GI50 [4] [µM]	GI50 [10] [µM]	GI50 [5] [µM]	GI50 [6] [µM]	GI50 [7] [µM]	GI50 [9] [µM]
N#C/C(=C\c1ccc(O)cc1)C(N)=O	> 100	> 100 µM	97.8 µM and > 100 µM	> 100	> 100	> 100	> 100	97.5 µM and 44 µM	> 100 µM	> 100 µM										
OC12CCC3(OC4CCCCO4)c4ccccc4C3C1c1ccccc12 (configuration not stated)	> 100	> 100 µM	> 100 µM		> 100	> 100	> 100		> 100 µM	> 100 µM										
Cc1nc2c(C)ccc([N+](=O)[O-])c2c(NCCCN(C)C)c1C	> 71.6	54.5 µM	> 100 µM	> 100	> 100	> 100	> 70.6		> 100 µM	> 100 µM										
C=CCNC(=S)NNC(=O)c1c(C)nc2sccn12	> 100	> 100 µM	> 100 µM	> 100	> 100	> 100	> 100		> 100 µM	> 100 µM										
CCCC1C[C@H]2CCCCN2[C@H]2CCCN12 (some centres not stated)	> 100	> 100 µM	> 100 µM	> 100	> 100	> 100	> 100		> 100 µM	> 100 µM										
O=P(CN1CCOCC1)(c1ccccc1)c1ccccc1	> 100	> 100 µM	> 100 µM	> 100	> 100	> 100	> 100		> 100 µM	> 100 µM										
CCOc1ccc(NC(=O)CC2SC(=Nc3ccc(C)cc3)NC2=O)cc1 (configuration not stated)	> 100	> 100 µM	> 100 µM	> 100	> 100	> 100			> 100 µM	> 100 µM										
CCCCCCCCCCCCCCCCCc1nc(Cl)nc(Cl)c1Cl	> 100			> 100	> 100	> 100			> 100 µM	> 100 µM										
O=S(=O)(c1ccccc1)N1CCCC(c2ccccc2)CC1 (configuration not stated)	> 100	> 100 µM		> 100	> 100		> 100		> 100 µM	> 100 µM	> 100									
COc1ccc(OC)c2c(C(C)=O)cccc12	> 100	> 100 µM	> 100 µM	> 100	> 100	> 100			> 100 µM	> 100 µM										
COc1ccc(/C=C/C(=O)c2c(-c3ccccc3)nn(C)c(=O)c2N2CC2C)cc1 (configuration not stated)	> 100	> 100 µM	94.3 µM	> 100	> 100	71.3	47.6		67.1 µM	> 100 µM										
N=C(N)c1ccc2oc3ccc(C(=N)N)cc3c(=O)c2c1	> 100	> 100 µM		> 100	> 100		> 100		> 100 µM	> 100 µM	> 100									
Cc1cc(Cl)ccc1N=C1NC(=O)C(CC(=O)Nc2cccc(Cl)c2)S1 (configuration not stated)	> 100	> 100 µM	> 100 µM	87.4	> 100	> 100	> 100		> 100 µM	> 100 µM										
FC(F)(F)c1ccccc1C1SCc2nc3ccccc3n21 (configuration not stated)	> 100	> 100 µM	> 100 µM	> 100	> 100	> 100	> 100		> 100 µM	> 100 µM										
NC(=NCCCCCCN=C(N)/N=C(\N)Nc1ccc(Cl)cc1)/N=C(\N)Nc1ccc(Cl)cc1	7.19	7.93 µM	8.3 µM	6.32	2.35	5.54	3.18			1.74 µM	4.24	1.67	2.01	1.53	1.83	1.52	0.966	0.916	1.31	0.927
COc1ccc(-c2nsc3c2NC(=O)CC3c2ccsc2)cc1 (configuration not stated)	> 25.2	38.4 µM		> 100	> 51.5	13.7		0.139 µM	4.25 µM	> 34 µM	40.8	0.409	3.08		0.773	1.28	0.211	0.313		0.0715
CC1[C@@]2(CCC(C)(C)O2)O[C@@H]2C=C3C4CCC5Cc6nc7c(nc6C[C@@]5(C)C4C[C@H](O)[C@@]3(C)[C@]12O)CC1CCC2C3=C[C@H]4O[C@@]5(O[C@@](C)(CO)C[C@@H]5O)C(C)[C@@]4(O)[C@]3(C)[C@@H](O)CC2[C@]1(C)C7 (some centres not stated)	1.2	0.358 µM and 0.0847 µM	0.875 µM and 0.462 µM					0.0132 µM	0.418 µM and 0.0804 µM	0.624 µM and 0.572 µM		0.426	0.0265	0.00521	0.00586		< 0.000365	0.00178	0.00444	0.0446
CCCN1C(=O)/C(=C/c2ccc(SC(F)(F)F)cc2)SC1=Nc1ccc(OC)cc1	20.7	22.4 µM	48.3 µM	24	38.1	> 50	> 50			> 50 µM	> 50	7.42	2.74	16.7	7.84	45.1	9.32	15.2	36.5	19.7
COc1ccc(/C=C/C(=N\NC(=O)c2ccccc2)c2sc(Nc3ccc([N+](=O)[O-])cc3)nc2C)cc1OC	27	28.1 µM	91 µM	> 100	26.5	> 100	33		17.4 µM	47.5 µM										
COc1cc2c(oc(=O)c3c4occc4cc(OC)c23)c2cccc(O)c12	> 100	> 100 µM	> 100 µM	> 100	> 100	> 100			> 100 µM	> 100 µM										
